How the values were obtained:
Hepa1-6 = experiment: Tumor growth inhibition, animal model for liver cancer (Hepa1-6); assay type: in vivo, C57BL/6 mice; settings: Dunnione 40 mg/kg oral every day from 11th day, Anti-CTLA4 antibody 200 μg/head i.p. 2 times a week from 11th day
Description: (§1) All mice used in the experiments were raised in a sterile animal room with constant temperature (22° C. to 26° C.) and constant humidity (55% to 60%), acclimatized for 1 week while sufficiently supplying typical solid feed (Samtako Inc., Korea) and water, and then used. All experiments were conducted after obtaining approval from the Institutional Animal Care and Use Committee in accordance with the laboratory animal care and ethics regulations of the Institutional Animal Care and Use Committee of Wonkwang University.
(§2) 7-week-old BALB/c or C57BL/6 mice were used, and subcutaneously inoculated using a 1-mL insulin syringe within 30 minutes after mixing the mouse cancer cells with 0.2 mL of PBS.
(§3) After the cancer cell line was subcutaneously implanted, the administration of drugs was started when the size of the cancer reached 50 to 100 mm^3. The volumes (mm^3) of the tumors, which were generated after the inoculation, were measured at intervals of 3 days using a caliper, calculation was performed using the formula of […], and then the results thereof were compared. […]

LL/2 = experiment: Tumor growth inhibition, animal model for lung cancer II (LL/2); assay type: in vivo, C57BL/6 mice; settings: Experimental Example 31; LL/2 lung cancer II; dunnione 40 mg/kg oral daily from 6th day; anti-PD-1 antibody 100 μg/head, carboplatin 25 mg/kg + pemetrexed 100 mg/kg intraperitoneal 2 times a week, 3 times in total
Description: as §1, §2, §3

EMT6 = experiment: Tumor growth inhibition, animal model for breast cancer II (EMT6); assay type: in vivo, BALB/c mice; settings: Experimental Example 14, Dunnione 40 mg/kg oral every day from 11th day, Anti-CTLA4 antibody 200 μg/head i.p. 2 times a week from 11th day, Lapatinib 100 mg/kg oral every day from 11th day
Description: as §1, §2, §3

MC38 [1] = experiment: Survival rate analysis, animal model for colorectal cancer I (MC38); assay type: in vivo, C57BL/6 mice
Description: After subcutaneous implantation of the cancer cell line, the survival rate was measured by recording the number of mice that died in each group every day. The measurement of survival rate was performed until the death of all mice in all groups or the death of all mice in the control. The average survival day was calculated by obtaining a survival curve using the survival rate.
After sole administration or co-administration of respective drugs was performed according to the administration schedules listed in Tables 36 and 37 below, the survival rates and the average survival days were calculated according to the survival rate analysis method described in Example 3.1, and the results thereof are respectively shown in Tables 36 and 37 and FIGS. 33 and 34.

4T1-Luc = experiment: Tumor metastasis analysis, photon emission amount after tumor resection (4T1-Luc); assay type: in vivo, BALB/c mice; settings: Experimental Example 32; 17th day after primary tumor removal; dunnione 40 mg/kg oral daily; anti-CTLA4 antibody 200 μg/head intraperitoneal at intervals of 3 days; mitoxantrone 6 mg/kg intraperitoneal once on 1st day
Description: 4T1-Luc (2.5×10^6 cells) as a mouse breast cancer cell line overexpressing a luciferase was implanted into mammary fat pads of BALB/c mice, and the tumor was removed through surgical resection when the size of the cancer reached 150 to 200 mm^3. The administration of drugs was started from the day after the tumor removal procedure, and the degree of cancer metastasis was measured by measuring the photon emission amount at intervals of 1 week from the 3rd day after the tumor removal procedure.
After sole administration or co-administration of respective drugs was performed according to the administration schedule listed in Table 35 below, the photon emission amount (fold) was measured on the 17th day according to the tumor metastasis assessment method described in Example 2.1, and the results thereof are shown in Table 35 and FIG. 32.

MC38 [2] = experiment: Tumor growth inhibition, animal model for colorectal cancer I (MC38); assay type: in vivo, C57BL/6 mice
Description: as §1, §2
After the cancer cell line was subcutaneously implanted, the administration of drugs was started when the size of the cancer reached 50 to 100 mm^3. The volumes (mm^3) of the tumors, which were generated after the inoculation, were measured at intervals of 3 days using a caliper, calculation was performed using the formula of […], and then the results thereof were compared.
In addition, sole administration or co-administration of respective drugs was performed according to the administration schedules listed in Tables 4 to 34 below, the tumor volumes were then measured according to the tumor proliferation assessment method described in Example 1.1, the tumor growth inhibition rates (TGI (O)=(Vc−Vt)/Vc×100(%); Vc: tumor volume of control, Vt tumor volume of experimental group) were calculated based the tumor volumes, and the results thereof are shown in the respective tables and FIGS. 1 to 31.

KLN205 = experiment: Tumor growth inhibition, animal model for lung cancer I (KLN205); assay type: in vivo, DBA/2 mice; settings: Experimental Example 30, dunnione 40 mg/kg oral daily from 5th day, anti-PD-1 antibody 100 μg/head, carboplatin 25 mg/kg + paclitaxel 10 mg/kg intraperitoneal 2 times a week, 4 times in total
Description: as §1, §2, §3

CT26 = experiment: Tumor growth inhibition, animal model for colorectal cancer II (CT26); assay type: in vivo,  mice; settings: Dunnione 40 mg/kg oral every day from 6th day, 4 times
Description: as §1, §2, §3

[3] = Experimental Example 34, dunnione 40 mg/kg oral daily from 6th day, anti-PD-1 antibody 200 μg/head intraperitoneal 2 times a week from 6th to 62nd day, 5-fluorouracil 50 mg/kg intraperitoneal once on 6th day

## CC1OC2=C(C(=O)C(=O)c3ccccc32)C1(C)C (stereo not drawn) [Dunnione, 2,3,3-trimethyl-2H-benzo[g][1]benzofuran-4,5-dione]
Hepa1-6; Experimental Example 28, 4 times, Sorafenib 10 mg/kg oral every day from 11th day
  TGI (%): 29.1%
Hepa1-6; Experimental Example 29, 3 times, Everolimus 1 mg/kg oral every day from 11th day
  TGI (%): 22.4%
LL/2
  TGI (%): 23.5%
EMT6
  TGI (%): 9.7%
MC38 [1]; Experimental Example 33, dunnione 40 mg/kg oral daily from 4th day, anti-PD-1 antibody 100 μg/head + anti-CTLA4 antibody 100 μg/head intraperitoneal, oxaliplatin 6 mg/kg + 5-fluorouracil 50 mg/kg intraperitoneal at intervals of 15 days, 3 times
  Survival rate (%) on 38th day after cancer implantation: 10%
MC38 [1]; [3]
  Average survival day: 28 days
  Total survival period: 22 to 45
4T1-Luc
  Photon emission amount: 2805.3 ± 2352.3 fold
MC38 [2]; Experimental Example 1, Dunnione 40 mg/kg oral every day from 5th day, Anti-PD-1 antibody 200 μg/head i.p. at intervals of 3 days from 5th day, 4 times, Oxaliplatin 6 mg/kg + 5-Fluorouracil 50 mg/kg i.p. once on 5th day
  TGI (%): 8.1%
MC38 [2]; Experimental Example 2, Dunnione 40 mg/kg oral every day from 5th day, Anti-CTLA4 antibody 200 μg/head i.p. at intervals of 3 days from 5th day, 4 times, Oxaliplatin 6 mg/kg + 5-Fluorouracil 50 mg/kg i.p. once on 5th day
  TGI (%): 7.6%
MC38 [2]; Experimental Example 3, Dunnione 40 mg/kg oral every day from 4th day, Anti-PD-1 antibody 100 ug/head + Anti-CTLA4 antibody 100 μg/head i.p. at intervals of 3 days from 4th day, 4 times, Oxaliplatin 6 mg/kg + 5-Fluorouracil 50 mg/kg i.p. once on 4th day
  TGI (%): 5.3%
MC38 [2]; Experimental Example 4, Dunnione 40 mg/kg oral every day from 7th day, Anti-LAG3 antibody 200 μg/head i.p. on 7th, 10th, 14th, 17th days, Oxaliplatin 6 mg/kg i.p. on 7th and 14th days
  TGI (%): 13.1%
MC38 [2]; Experimental Example 5, Dunnione 40 mg/kg oral every day from day of cancer cell implantation, Anti-PD-1 antibody 200 μg/head i.p. at intervals of 3 days from 7th day, 4 times
  TGI (%): 28.5%
MC38 [2]; Experimental Example 6, Dunnione 40 mg/kg oral every day from 7th day, Anti-PD-1 antibody 100 μg/head i.p. 2 times a week from 7th day, 4 times, Regorafenib 10 mg/kg oral every day from 7th day
  TGI (%): 36.8%
MC38 [2]; Experimental Example 7, Dunnione 40 mg/kg oral every day from 6th day, Anti-PD-1 antibody 100 μg/head i.p. 2 times a week from 6th day, 2 times, Abemaciclib 75 mg/kg oral every day from 6th day
  TGI (%): 9.9%
KLN205
  TGI (%): 10.2%
CT26; Experimental Example 8, Irinotecan 4.626 mg/kg + Leucovorin 10.28 mg/kg + 5-Fluorouracil 61.68 mg/kg i.p. 2 times a week from 6th day
  TGI (%): 21.2%
CT26; Experimental Example 9, Anti-PD-1 antibody 200 μg/head i.p. 2 times a week from 6th day
  TGI (%): 25.5%
